Consider 26 compounds from patent publication US11098032B2, “Pyran dervatives as CYP11A1 (cytochrome P450 monooxygenase 11A1) inhibitors” (ORION CORPORATION, priority 2016, dated 2021).

Structures can show the parent of a compound that is named as a salt.

The assay addresses T1, CYP11A1 (Homo sapiens, UniProt P05108).
T1 construct: human H295R adrenocortical carcinoma cell line was used as source of enzyme; endogenous in cells; host or cells: H295R human adrenocortical carcinoma cells
T1 sequence (P05108 40-521): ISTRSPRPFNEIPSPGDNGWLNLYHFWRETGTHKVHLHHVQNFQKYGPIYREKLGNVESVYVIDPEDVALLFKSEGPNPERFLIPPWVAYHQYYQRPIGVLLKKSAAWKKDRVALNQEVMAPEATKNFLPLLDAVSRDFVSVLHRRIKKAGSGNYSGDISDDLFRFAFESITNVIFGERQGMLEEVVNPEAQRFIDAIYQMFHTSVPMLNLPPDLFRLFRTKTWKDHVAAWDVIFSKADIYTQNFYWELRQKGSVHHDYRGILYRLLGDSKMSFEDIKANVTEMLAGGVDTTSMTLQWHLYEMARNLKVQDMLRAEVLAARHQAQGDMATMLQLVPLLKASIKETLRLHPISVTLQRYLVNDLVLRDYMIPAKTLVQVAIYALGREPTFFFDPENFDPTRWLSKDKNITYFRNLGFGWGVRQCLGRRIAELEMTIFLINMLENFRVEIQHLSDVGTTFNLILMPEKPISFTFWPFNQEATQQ
As to the kind of experiment: CYP11A1 inhibition: modified isocaproic acid release assay (IARA) in H295R cells. In kind it is cell-based. The conditions noted are these: human H295R adrenocortical carcinoma cells treated three days, 3 nM [24,25-3H]-labelled cholesterol, 1% DMSO, 10 concentrations in duplicates; read-out: IC50 of the test compounds on CYP11A1 inhibition. As to the method:
The ability of the test compounds to inhibit conversion of cholesterole to pregnenolone and isocaproic acid was measured by modification of isocaproic acid release assay (IARA) described by Ruangwises et. al. (Biology of Reproduction 1991; 45(1):143-50) except that human H295R adrenocortical carcinoma cell line was used as source of enzyme and extraction was done with dextran-coated charcoal suspension (Isomaa, V. et al., Endocrinology 1982; 111(3):833-843). […] To determine the half maximal inhibitory concentration (IC50) of the test compounds on CYP11A1 inhibition, the cells were treated for three days with increasing concentrations of the test compounds in the presence of 3 nM [24,25-3H]-labelled cholesterol (American Radiolabelled Chemicals). The final DMSO concentration was 1%. Cell culture medium was extracted with dextran-coated charcoal suspension and the radiolabelled isocaproic acid was determined by mixing 100 μl of supernatant fraction in 200 μl of scintillation fluid (OptiPhase SuperMix, Perkin Elmer). Radioactivity was measured using a Microbeta scintillation counter (1450 MicroBeta Trilux, Wallac). All the test compounds were studied at 10 concentrations in duplicates.
As to `CN(C)C(=O)c1ccc(COc2coc(CN3Cc4cc(F)c(F)cc4C3)cc2=O)cc1` [Compound 82a, 4-(((6-((5,6-Difluoroisoindolin-2-yl)methyl)-4-oxo-4H-pyran-3-yl)oxy)methyl)-N,N-dimethylbenzamide], the IC50 (usually the concentration that gives 50% inhibition) was 150 to 300 nM.
Consider `CN(C1CCC(COc2coc(CN3Cc4ccccc4C3)cc2=O)CC1)S(C)(=O)=O` (centres unmarked) [Compound 218, N-(4-(((6-(Isoindolin-2-ylmethyl)-4-oxo-4H-pyran-3-yl)oxy)methyl)cyclohexyl)-N-methylmethanesulfonamide], for which the IC50 is 150 to 300 nM.
For `O=C(c1ccc(COc2coc(CN3CCc4ccccc4C3)cc2=O)cc1)N1CCCC(O)C1` (centres unmarked) [Compound 149, 2-((3,4-Dihydroisoquinolin-2(1H)-yl)methyl)-5-((4-(3-hydroxypiperidine-1-carbonyl)benzyl)oxy)-4H-pyran-4-one], the IC50 was 301 to 2000 nM.
As to `COCCS(=O)(=O)N1CCC(COc2coc(CN3Cc4ccccc4C3)cc2=O)CC1` [Compound 262, 2-(Isoindolin-2-ylmethyl)-5-((1-((2-methoxyethyl)sulfonyl)piperidin-4-yl)-methoxy)-4H-pyran-4-one], the IC50 is under 150 nM.
On to `O=C(C1CCC(COc2coc(CN3Cc4ccccc4C3)cc2=O)CC1)N1CCC1` (centres unmarked) [Compound 234, 5-((4-(Azetidine-1-carbonyl)cyclohexyl)methoxy)-2-(isoindolin-2-ylmethyl)-4H-pyran-4-one], for which the IC50 is under 150 nM.
For `O=c1cc(CN2Cc3ccccc3C2)occ1OCc1ccc(S(=O)(=O)C(F)F)cc1` [Compound 22, 5-((4-((Difluoromethyl)sulfonyl)benzyl)oxy)-2-(isoindolin-2-ylmethyl)-4H-pyran-4-one], the IC50 was under 150 nM.
As to `Cc1ccc(COc2coc(CN3CCc4ccccc4C3)cc2=O)cc1` [Compound 42, 2-((3,4-Dihydroisoquinolin-2(1H)-yl)methyl)-5-((4-methylbenzyl)oxy)-4H-pyran-4-one], the concentration for half-maximal inhibition (IC50) was 301 to 2000 nM.
With `CCS(=O)(=O)N1CCC(COc2coc(CN3Cc4ccccc4C3)cc2=O)CC1` [Compound 188, 5-((1-(Ethylsulfonyl)piperidin-4-yl)methoxy)-2-(isoindolin-2-ylmethyl)-4H-pyran-4-one], the IC50 was under 150 nM.
For the compound `CCS(=N)(=O)c1ccc(COc2coc(CN3Cc4ccc([N+](=O)[O-])cc4C3)cc2=O)cc1` (centres unmarked) [Compound 168, 5-((4-(Ethylsulfonimidoyl)benzyl)oxy)-2-((5-nitroisoindolin-2-yl)methyl)-4H-pyran-4-one], the IC50 was in the range of 150 to 300 nM.
For the compound `CC(C)(C)OC(=O)N1CCC[C@H](COc2coc(CN3Cc4ccccc4C3)cc2=O)C1` [Compound 201, (S)-tert-Butyl 3-(((6-(isoindolin-2-ylmethyl)-4-oxo-4H-pyran-3-yl)oxy)methyl)-piperidine-1-carboxylate], the IC50 lay within 301 to 2000 nM.
In the case of `CN(C)C(=O)c1ccc(COc2coc(CN3Cc4ccc(F)cc4C3)cc2=O)cc1` [Compound 127, 4-(((6-((5-Fluoroisoindolin-2-yl)methyl)-4-oxo-4H-pyran-3-yl)oxy)methyl)-N,N-dimethylbenzamide] it was 150 to 300 nM; in that of `CNC(=O)c1ccc(COc2coc(CN3CCc4ccccc4C3)cc2=O)cc1` [Compound 48, 4-(((6-((3,4-Dihydroisoquinolin-2(1H)-yl)methyl)-4-oxo-4H-pyran-3-yl)oxy)-methyl)-N-methylbenzamide], 301 to 2000 nM; in that of `CC(C)(C)OC(=O)N1CCC(COc2coc(CN3Cc4ccccc4C3)cc2=O)C1` (centres unmarked) [Compound 182, tert-Butyl 3-(((6-(isoindolin-2-ylmethyl)-4-oxo-4H-pyran-3-yl)oxy)methyl)-pyrrolidine-1-carboxylate], 301 to 2000 nM.
In the case of `CS(=O)(=O)N1CCC(COc2coc(CN3Cc4ccccc4C3)cc2=O)=C(F)C1` [Compound 104, 5-((5-Fluoro-1-(methylsulfonyl)-1,2,3,6-tetrahydropyridin-4-yl)methoxy)-2-(isoindolin-2-ylmethyl)-4H-pyran-4-one] it was under 150 nM.
In the case of `CS(=O)(=O)N1CC=C(COc2coc(CN3Cc4ccccc4C3)cc2=O)CC1` [Compound 98, 2-(Isoindolin-2-ylmethyl)-5-((1-(methylsulfonyl)-1,2,3,6-tetrahydropyridin-4-yl)methoxy)-4H-pyran-4-one] it was 150 to 300 nM.
With `N#Cc1ccc(COc2coc(CN3CCc4ccccc4C3)cc2=O)cc1` [Compound 41, 4-(((6-((3,4-Dihydroisoquinolin-2(1H)-yl)methyl)-4-oxo-4H-pyran-3-yl)oxy)-methyl)benzonitrile], the IC50 was in the range of 301 to 2000 nM.
In the case of `CC(C)(O)c1ccc(COc2coc(CN3Cc4ccccc4C3)cc2=O)cc1` [Compound 49, 5-((4-(2-Hydroxypropan-2-yl)benzyl)oxy)-2-(isoindolin-2-ylmethyl)-4H-pyran-4-one] it was under 150 nM; in that of `NC(=O)c1ccc(COc2coc(CN3Cc4ccccc4C3)cc2=O)c(F)c1` [Compound 56, 3-Fluoro-4-(((6-(isoindolin-2-ylmethyl)-4-oxo-4H-pyran-3-yl)oxy)methyl)-benzamide], 150 to 300 nM; in that of `O=c1cc(CN2Cc3ccccc3C2)occ1OCc1ccc(-n2ccnn2)cc1` [Compound 107, 5-((4-(1H-1,2,3-triazol-1-yl)benzyl)oxy)-2-(isoindolin-2-ylmethyl)-4H-pyran-4-one], 150 to 300 nM.
As to `COc1ccc2c(c1)CCN(Cc1cc(=O)c(OCc3ccc(C(C)(C)O)cc3)co1)C2` [Compound 52, 5-((4-(2-Hydroxypropan-2-yl)benzyl)oxy)-2-((6-methoxy-3,4-dihydroisoquinolin-2(1H)-yl)methyl)-4H-pyran-4-one], the IC50 fell in the range of 301 to 2000 nM.
The figure for `CNC(=O)c1ccc(COc2coc(CN3Cc4ccccc4C3)cc2=O)cc1F` [Compound 79, 2-Fluoro-4-(((6-(isoindolin-2-ylmethyl)-4-oxo-4H-pyran-3-yl)oxy)methyl)-N-methylbenzamide] is 301 to 2000 nM; for `CSc1ccc2c(c1)CN(Cc1cc(=O)c(OCc3ccc(S(C)(=O)=O)cc3)co1)C2` [Compound 280, 5-((4-(Methylsulfonyl)benzyl)oxy)-2-((5-(methylthio)isoindolin-2-yl)methyl)-4H-pyran-4-one] it is 150 to 300 nM.
Turning to `CS(=O)(=O)N1CCC(COc2coc(CN3Cc4ccc(F)c(F)c4C3)cc2=O)CC1` [Compound 245, 2-((4,5-Difluoroisoindolin-2-yl)methyl)-5-((1-(methylsulfonyl)piperidin-4-yl)methoxy)-4H-pyran-4-one], the 50% inhibitory concentration (IC50) was in the range of 301 to 2000 nM.
As for `O=C(c1ccc(COc2coc(CN3Cc4ccc(Br)cc4C3)cc2=O)cc1)N1CCCC1` [Compound 130, 2-((5-Bromoisoindolin-2-yl)methyl)-5-((4-(pyrrolidine-1-carbonyl)benzyl)oxy)-4H-pyran-4-one], the IC50 is under 150 nM.
For `CN(C)S(=O)(=O)c1ccc(COc2coc(CN3Cc4ccccc4C3)cc2=O)cc1` [Compound 10, 4-(((6-(Isoindolin-2-ylmethyl)-4-oxo-4H-pyran-3-yl)oxy)methyl)-N,N-di-methylbenzenesulfonamide], the IC50 was under 150 nM.
Consider `O=c1cc(CN2Cc3ccccc3C2)occ1OC[C@H]1C=C[C@@H](NS(=O)(=O)C2CC2)C1` (relative stereo) [Compound 274, Cis-N-(4-(((6-(isoindolin-2-ylmethyl)-4-oxo-4H-pyran-3-yl)oxy)methyl)cyclo-pent-2-en-1-yl)cyclopropanesulfonamide, Formate], for which the IC50 lay in the range of 301 to 2000 nM.
